From PMC12339982 (Nature Communications, 2025)

Tests used:
[1] = target: T1, human wild type TauT (TauT^WT) (Homo sapiens, UniProt P31641); experiment: [3H]taurine uptake inhibition assay in HEK293T cells overexpressing TauT^WT; format: cell-based; details: for inhibition of the uptake activity of TauT: result in words
T1 sequence (P31641 1-620): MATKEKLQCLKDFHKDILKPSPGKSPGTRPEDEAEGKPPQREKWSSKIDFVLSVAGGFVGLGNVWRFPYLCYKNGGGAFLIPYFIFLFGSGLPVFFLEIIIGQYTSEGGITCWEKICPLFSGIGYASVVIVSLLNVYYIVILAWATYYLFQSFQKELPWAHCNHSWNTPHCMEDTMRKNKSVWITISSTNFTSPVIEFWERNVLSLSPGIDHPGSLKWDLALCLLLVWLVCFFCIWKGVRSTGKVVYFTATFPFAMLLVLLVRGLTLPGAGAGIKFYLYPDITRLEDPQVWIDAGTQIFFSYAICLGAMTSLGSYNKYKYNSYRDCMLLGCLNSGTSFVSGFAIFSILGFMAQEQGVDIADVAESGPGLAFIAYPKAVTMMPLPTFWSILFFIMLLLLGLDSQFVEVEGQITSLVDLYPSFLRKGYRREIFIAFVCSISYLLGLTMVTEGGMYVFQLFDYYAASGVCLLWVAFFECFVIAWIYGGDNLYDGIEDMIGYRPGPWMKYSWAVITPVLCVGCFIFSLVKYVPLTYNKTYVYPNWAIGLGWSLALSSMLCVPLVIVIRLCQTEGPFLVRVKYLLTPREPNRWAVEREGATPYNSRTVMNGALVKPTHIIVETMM

[2] = tested on: hGAT1; details: previous studies; cited from earlier work

inhibition of the uptake activity of TauT [1] | IC50 [1] [µM] | SMILES | IC50 for hGAT1 compared with hTauT [2]
concentration-dependently inhibited | – | NCCCCC(=O)O [5AVA, 5-aminovaleric acid] | –
concentration-dependently inhibited | 770 ± 160 | NCCCS(=O)(=O)O [Htau, homotaurine] | –
concentration-dependently inhibited | – | O=S(=O)(O)C1CCNCC1 [P4S, piperidine-4-sulfonic acid] | –
concentration-dependently inhibited | – | O=C(O)C1CCCNC1 (stereo not shown) [nipecotic acid] | lower IC50 value for hGAT1 than for hTauT

SMILES | inhibition of the uptake activity of TauT [1] | IC50 [1] [µM] | IC50 for hGAT1 compared with hTauT [2]
O=C(O)Cc1c[nH]cn1 [I4AA, imidazole-4-acetic acid] | concentration-dependently inhibited | – | –
